According to ChEMBL document CHEMBL3997765 (Medchemcomm, 2016):
Calls of active or inactive are those of the source. The calls are words filed in the database; no cut-off is given here.

What follows are compounds tested against T1, Mitogen-activated protein kinase 14 (Homo sapiens, UniProt Q16539) (assay: Inhibition of p38alpha phosphorylation in human U266 cells at 10 uM after 3 hrs by western blot analysis).
Format: cell-based

T1 sequence (Q16539 whole entry): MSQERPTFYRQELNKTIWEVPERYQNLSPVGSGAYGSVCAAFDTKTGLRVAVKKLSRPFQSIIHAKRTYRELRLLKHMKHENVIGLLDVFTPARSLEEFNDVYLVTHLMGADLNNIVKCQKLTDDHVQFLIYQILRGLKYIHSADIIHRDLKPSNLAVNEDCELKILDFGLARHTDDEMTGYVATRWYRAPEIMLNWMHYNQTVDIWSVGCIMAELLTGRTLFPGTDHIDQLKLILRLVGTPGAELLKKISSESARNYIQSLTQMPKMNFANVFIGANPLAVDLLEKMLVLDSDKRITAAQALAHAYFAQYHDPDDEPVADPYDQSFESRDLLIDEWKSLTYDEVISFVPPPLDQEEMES

inhibition | Compound
Active | Cc1ccc(C2=Nc3c(ncnc3S(=O)(=O)c3ccc(C)cc3)[S+]([O-])c3ccc(C)cc32)cc1 (stereo unspecified)

These compounds were tested against T1, Mitogen-activated protein kinase 14 (assay: Inhibition of p38alpha phosphorylation in human MM1S cells after 3 hrs by western blot analysis).
Format: cell-based

inhibition | Compound
Dose-dependent effect | Cc1ccc(C2=Nc3c(ncnc3S(=O)(=O)c3ccc(C)cc3)[S+]([O-])c3ccc(C)cc32)cc1 (stereo unspecified)

Each compound was assayed against T1, Mitogen-activated protein kinase 14 (assay: Inhibition of full length recombinant human GST-tagged p38alpha expressed in Escherichia coli by Z'-Lyte assay).

IC50 | Compound
1250 nM | c1ccc(Sc2ncnc3c2N=C(c2cccnc2)c2ccccc2S3)cc1
855 nM | [O-][S+](c1ccc(Cl)cc1)c1ncnc2c1N=C(c1ccccc1)c1cc(Cl)ccc1S2 (stereo unspecified)

The next lines start with the compound.

Compound | IC50
Cc1ccc(C2=Nc3c(ncnc3S(=O)(=O)c3ccc(C)cc3)[S+]([O-])c3ccc(C)cc32)cc1 (stereo unspecified) | 42.7 nM
CCCC1=Nc2c(ncnc2[S+]([O-])c2ccccc2)Sc2ccccc21 (stereo unspecified) | 969 nM

The compounds below were run against T1, Mitogen-activated protein kinase 14 (assay: Inhibition of full length recombinant human GST-tagged p38alpha expressed in Escherichia coli at 10 uM using Ser/Thr04 peptide as substrate in presence of inactive MAPKAPK2 after 1 hr by FRET assay relative to control).

inhibition | Compound
0% | Clc1ccc(Sc2ncnc3c2N=C(Cc2ccccc2)c2cc(Cl)ccc2S3)cc1
3% | Clc1ccc(Sc2ncnc3c2N=C(c2ccccc2)c2cc(Cl)ccc2S3)cc1
11% | CCCC1=Nc2c(Sc3ccccc3)ncnc2Sc2ccccc21
4% | Cc1ccc(Sc2ncnc3c2N=C(c2cccnc2)c2cc(C)ccc2S3)cc1
9% | c1ccc(CC2=Nc3c(Sc4ccccc4)ncnc3Sc3ccccc32)cc1
12% | Cc1ccc(Sc2ncnc3c2N=C(c2ccccc2)c2cc(C)ccc2S3)cc1
63% | O=[N+]([O-])c1ccccc1C1=Nc2c(Sc3ccccc3)ncnc2Sc2ccccc21
10% | COc1ccc(Sc2ncnc3c2N=C(Cc2ccccc2)c2cc(OC)ccc2S3)cc1
7% | Fc1ccc(C2=Nc3c(Sc4ccccc4)ncnc3Sc3ccccc32)cc1
16% | CCCC1=Nc2c(Sc3ccc(C)cc3)ncnc2Sc2ccc(C)cc21
18% | c1ccc(Sc2ncnc3c2N=C(c2ccccc2)c2ccccc2S3)cc1
99% | Cc1ccc(C2=Nc3c(ncnc3[S+]([O-])c3ccc(Cl)cc3)Sc3ccc(Cl)cc32)cc1 (stereo unspecified)
30% | COc1ccc(Sc2ncnc3c2N=C(c2ccc(C)cc2)c2cc(OC)ccc2S3)cc1
19% | Cc1ccc2c(c1)C(Cc1ccccc1)=Nc1c(NCc3ccccc3)ncnc1S2
4% | Cc1ccc(C2=Nc3c(Sc4ccc(Cl)cc4)ncnc3Sc3ccc(Cl)cc32)cc1
29% | Cc1ccc2c(c1)C(Cc1ccccc1)=Nc1c(NC3CCCCC3)ncnc1S2
0% | Cc1ccc(Sc2ncnc3c2N=C(c2ccc(F)cc2)c2cc(C)ccc2S3)cc1
1% | Cc1ccc(Sc2ncnc3c2N=C(Cc2ccccc2)c2cc(C)ccc2S3)cc1
98% | c1ccc(Sc2ncnc3c2N=C(c2cccnc2)c2ccccc2S3)cc1
-2% | Cc1ccc(C2=Nc3c(NCc4ccccc4)ncnc3Sc3ccc(Cl)cc32)cc1
98% | [O-][S+](c1ccc(Cl)cc1)c1ncnc2c1N=C(c1ccccc1)c1cc(Cl)ccc1S2 (stereo unspecified)

Continued, compound first:

Compound | inhibition
Cc1ccc2c(c1)C(c1ccc(F)cc1)=Nc1c(N)ncnc1S2 | 4%
CCCCNc1ncnc2c1N=C(c1ccccc1)c1cc(Cl)ccc1S2 | -6%
Cc1ccc2c(c1)C(c1ccc(F)cc1)=Nc1c(NCCO)ncnc1S2 | -3%
Cc1ccc(C2=Nc3c(ncnc3[S+]([O-])c3ccc(C)cc3)Sc3ccc(C)cc32)cc1 (stereo unspecified) | 88%
CCCCNc1ncnc2c1N=C(c1ccccc1)c1cc(C)ccc1S2 | -4%
CCCC1=Nc2c(NCc3ccccc3)ncnc2Sc2ccccc21 | 5%
Cc1ccc(C2=Nc3c(NC4CCCCC4)ncnc3Sc3ccc(Cl)cc32)cc1 | 11%
Cc1ccc(C2=Nc3c(ncnc3S(=O)(=O)c3ccc(C)cc3)[S+]([O-])c3ccc(C)cc32)cc1 (stereo unspecified) | 100%
Cc1ccc2c(c1)C(c1cccnc1)=Nc1c(NCc3ccccc3)ncnc1S2 | 18%
Cc1ccc([S+]([O-])c2ncnc3c2N=C(c2cccnc2)c2cc(C)ccc2S3)cc1 (stereo unspecified) | 100%
Cc1ccc(S(=O)(=O)c2ncnc3c2N=C(c2ccccc2)c2cc(C)ccc2[S+]3[O-])cc1 (stereo unspecified) | 100%
c1ccc(C2=Nc3c(ncnc3N3CCCC3)Sc3ccccc32)cc1 | -4%
CCCC1=Nc2c(ncnc2[S+]([O-])c2ccccc2)Sc2ccccc21 (stereo unspecified) | 73%
Cc1ccc([S+]([O-])c2ncnc3c2N=C(c2ccccc2)c2cc(C)ccc2S3)cc1 (stereo unspecified) | 95%
